Measurements reported in ChEMBL document CHEMBL1641601, “Design, synthesis, and testing of an 6-O-linked series of benzimidazole based inhibitors of CDK5/p25” (Bioorg Med Chem, 2011).

molecular target: Cyclin-dependent kinase 5/CDK5 activator 1 (Homo sapiens, UniProt Q00535); experiment: Inhibition of CDK5/P25 GST-fusion protein assessed as substrate histone H1 phosphorylation by scintillation counting; type: protein-complex assay
Sequence (Q00535 whole entry, the tested form may be a part): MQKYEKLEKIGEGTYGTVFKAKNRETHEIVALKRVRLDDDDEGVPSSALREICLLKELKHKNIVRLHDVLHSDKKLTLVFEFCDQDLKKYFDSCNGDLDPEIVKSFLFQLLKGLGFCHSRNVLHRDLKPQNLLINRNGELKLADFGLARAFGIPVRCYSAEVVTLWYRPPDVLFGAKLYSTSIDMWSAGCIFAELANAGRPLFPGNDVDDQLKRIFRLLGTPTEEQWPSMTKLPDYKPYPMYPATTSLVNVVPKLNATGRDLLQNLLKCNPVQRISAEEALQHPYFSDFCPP
Sequence (Q15078 whole entry, further chain, the tested form may be a part): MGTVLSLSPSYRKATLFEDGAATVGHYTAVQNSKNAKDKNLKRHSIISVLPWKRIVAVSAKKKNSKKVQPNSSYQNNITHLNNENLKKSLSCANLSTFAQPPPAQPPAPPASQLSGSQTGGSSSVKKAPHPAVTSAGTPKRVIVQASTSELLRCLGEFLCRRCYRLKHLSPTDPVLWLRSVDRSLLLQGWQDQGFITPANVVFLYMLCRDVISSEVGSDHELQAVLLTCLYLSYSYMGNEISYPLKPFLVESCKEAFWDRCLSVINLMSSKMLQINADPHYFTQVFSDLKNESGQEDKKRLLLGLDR

IC50 [µM]	SMILES
> 10	COc1cc(NCc2ccccc2)c2ncn(C(C)C)c2c1
13	CCC(CO)Oc1cc(NCc2ccccc2)c2ncn(C(C)C)c2c1 (configuration not stated)
> 100	CCOc1cc(NCc2ccccc2)c2ncn(C(C)C)c2c1
> 100	CCCOc1cc(NCc2ccccc2)c2ncn(C(C)C)c2c1
> 100	CCCCOc1cc(NCc2ccccc2)c2ncn(C(C)C)c2c1
> 100	COCCOc1cc(NCc2ccccc2)c2ncn(C(C)C)c2c1
> 100	CCC(CN(C)C)Oc1cc(NCc2ccccc2)c2ncn(C(C)C)c2c1 (configuration not stated)
> 100	CC(C)n1cnc2c(NCc3ccccc3)cc(OCC3CCN(C)CC3)cc21
> 10	CCC(COC)Oc1cc(NCc2ccccc2)c2ncn(C(C)C)c2c1 (configuration not stated)
> 100	CC(C)n1cnc2c(NCc3ccccc3)cc(OCCO)cc21
> 100	CCC(O)COc1cc(NCc2ccccc2)c2ncn(C(C)C)c2c1 (configuration not stated)
> 100	CC(C)n1cnc2c(NCc3ccccc3)cc(OCC3CCNCC3)cc21
